These are literature values, as cited in patent publication US20070225367A1, “Composition for beneficially influencing Alzheimer's disease and/or for Alzheimer's prophylaxis” (Clariant International Ltd, priority 2006, published 2007).

Data set [1] deals with β-amyloid aggregation (Homo sapiens, UniProt P05067). To be noted: in vitro.
In data set [2] the test system is β-amyloid levels. To be noted: oral administration, APP transgenic mice.

β-amyloid aggregation, sequence (P05067 672-713 limits assumed): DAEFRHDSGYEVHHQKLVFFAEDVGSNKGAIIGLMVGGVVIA

Regarding `[Cu]` [copper], the “effect on β-amyloid aggregation” value in data set [1] is “inhibitory effect”. Also, the β-amyloid levels entry in data set [2] is recorded as “reduced”.
